Measurements from paper PMC10917340, “Coxsackievirus infection induces direct pancreatic β cell killing but poor antiviral CD8^+ T cell responses” (Science Advances, 2024).
Read-outs that look alike come from different tables or passages of the source.

Key:
circulating CD8+ T cells [1] = experiment: Combinatorial HLA-A2 multimer (MMr) assay, screening round; assay type: cell-based, human; conditions: for Screening round % effector/memory median (range): HLA-A2, effector/memory (non CD45RA+CCR7+) fraction among MMr+CD8+ T cells; for Screening round Frequency median: HLA-A2 MMr+CD8+ T cells out of total CD8+ T cells, frozen/thawed PBMCs, CVB-seropositive healthy adults, median of donors
HLA-A2 = target: T1, HLA-A2 (Homo sapiens, UniProt P04439, D140Y/D185E/D98H/E176V/E277Q/G131W/G231S/I119V/I121R/I166T/I218V/N151K/N90K/P208A/P217A/Q86G/Q94H/R138H/R169H); experiment: In vitro HLA-I binding assay (bead-captured folded monomers)
T1 construct: purchased ImmunAware

circulating CD8+ T cells [2] = experiment: Combinatorial HLA-A2 multimer (MMr) assay, validation round; assay type: cell-based, human; conditions: HLA-A2 MMr+CD8+ out of total CD8+ T cells; donors/peptides with <3 MMr+ cells noted as 1.0E-7
[3] = in silico predicted HLA-A2-binding peptides, fig. S2D

Sequence | Screening round % effector/memory median (range) (circulating CD8+ T cells [1]) | Screening round Frequency median (circulating CD8+ T cells [1]) | In vitro binding to HLA-A2 (in words) (HLA-A2) | In vitro binding to HLA-A2 (in words) (HLA-A2; [3]) | other results
VMIKSLPAL [CVB4-6 60-68, HLA-A2, in silico] | 20 (20-20) % | 5.3 E-6 |  |  | 
GIIYIIYKL [previously reported CVB peptide, IEDB #20311] |  |  | did not confirm as binders |  | 
VMGDALGSV [ZnT8245-253 peptide homologous to CVB1 150-158] |  |  |  | did not confirm as binders | 
KLPDALSQM |  |  |  | did not confirm as binders | 
IMIKSMPAL [CVB1-2-5 60-68, HLA-A2, in silico] | 26 (0-70) % | 2.2 E-5 |  |  | Validation round Frequency median (circulating CD8+ T cells [2]): 1.0 E-7
VIASYPWPI |  |  | did not confirm as binders |  | 
